Measurements published in patent US10584128B2, “Bicyclic dihydropyrimidine-carboxamide derivatives as Rho-Kinase inhibitors” (CHIESI FARMACEUTICI S.p.A., priority 2016, dated 2020).

Key:
Rho kinase 2 = Rho kinase 2 (Homo sapiens, UniProt O75116); assay: In vitro Rho kinase inhibitory activity assay (ADP-Glo kit, Myelin Basic Protein substrate); assay type: biochemical; conditions: 10 μM ATP, 25° C., read-out: ROCK2 inhibitory activity (Ki, range of activity)
Description: (§1) The effectiveness of compounds of the present invention to inhibit Rho kinase activity can be determined in a 10 μl assay containing 40 mM Tris pH7.5, 20 mM MgCl2 0.1 mg/ml BSA, 50 μM DTT and 2.5 μM peptide substrate (Myelin Basic Protein) using an ADP-Glo kit (Promega). Compounds were dissolved in DMSO such that the final concentration of DMSO was 1% in the assay. All reactions/incubations are performed at 25° C. Compound (2 ul) and either Rho kinase 1 or 2 (4 μl) were mixed and incubated for 30 mins. Reactions were initiated by addition of ATP (4 μl) such that the final concentration of ATP in the assay was 10 μM. After a 1 hour incubation 10 μl of ADP-Glo Reagent was added and after a further 45 minute incubation 20 ul of Kinase Detection Buffer was added and the mixture incubated for a further 30 minutes. The luminescent signal was measured on a luminometer. […] Compounds were tested in dose-response format and the inhibition of kinase activity was calculated at each concentration of compound. To determine the IC50 (concentration of compound required to inhibit 50% of the enzyme activity) data were fit to a plot of % inhibition vs Log10 compound concentration using a sigmoidal fit with a variable slope and fixing the maximum to 100% and the minimum to 0%. To determine the Ki values the Cheng-Prusoff equation was utilized (Ki=IC50/(1+[S]/Km).

Rho kinase 1 = Rho kinase 1 (Homo sapiens, UniProt Q13464); assay: as above; assay type: biochemical; conditions: 10 μM ATP, 25° C., read-out: ROCK1 inhibitory activity (Ki, range of activity)
Rho kinase 1, sequence (Q13464 whole entry): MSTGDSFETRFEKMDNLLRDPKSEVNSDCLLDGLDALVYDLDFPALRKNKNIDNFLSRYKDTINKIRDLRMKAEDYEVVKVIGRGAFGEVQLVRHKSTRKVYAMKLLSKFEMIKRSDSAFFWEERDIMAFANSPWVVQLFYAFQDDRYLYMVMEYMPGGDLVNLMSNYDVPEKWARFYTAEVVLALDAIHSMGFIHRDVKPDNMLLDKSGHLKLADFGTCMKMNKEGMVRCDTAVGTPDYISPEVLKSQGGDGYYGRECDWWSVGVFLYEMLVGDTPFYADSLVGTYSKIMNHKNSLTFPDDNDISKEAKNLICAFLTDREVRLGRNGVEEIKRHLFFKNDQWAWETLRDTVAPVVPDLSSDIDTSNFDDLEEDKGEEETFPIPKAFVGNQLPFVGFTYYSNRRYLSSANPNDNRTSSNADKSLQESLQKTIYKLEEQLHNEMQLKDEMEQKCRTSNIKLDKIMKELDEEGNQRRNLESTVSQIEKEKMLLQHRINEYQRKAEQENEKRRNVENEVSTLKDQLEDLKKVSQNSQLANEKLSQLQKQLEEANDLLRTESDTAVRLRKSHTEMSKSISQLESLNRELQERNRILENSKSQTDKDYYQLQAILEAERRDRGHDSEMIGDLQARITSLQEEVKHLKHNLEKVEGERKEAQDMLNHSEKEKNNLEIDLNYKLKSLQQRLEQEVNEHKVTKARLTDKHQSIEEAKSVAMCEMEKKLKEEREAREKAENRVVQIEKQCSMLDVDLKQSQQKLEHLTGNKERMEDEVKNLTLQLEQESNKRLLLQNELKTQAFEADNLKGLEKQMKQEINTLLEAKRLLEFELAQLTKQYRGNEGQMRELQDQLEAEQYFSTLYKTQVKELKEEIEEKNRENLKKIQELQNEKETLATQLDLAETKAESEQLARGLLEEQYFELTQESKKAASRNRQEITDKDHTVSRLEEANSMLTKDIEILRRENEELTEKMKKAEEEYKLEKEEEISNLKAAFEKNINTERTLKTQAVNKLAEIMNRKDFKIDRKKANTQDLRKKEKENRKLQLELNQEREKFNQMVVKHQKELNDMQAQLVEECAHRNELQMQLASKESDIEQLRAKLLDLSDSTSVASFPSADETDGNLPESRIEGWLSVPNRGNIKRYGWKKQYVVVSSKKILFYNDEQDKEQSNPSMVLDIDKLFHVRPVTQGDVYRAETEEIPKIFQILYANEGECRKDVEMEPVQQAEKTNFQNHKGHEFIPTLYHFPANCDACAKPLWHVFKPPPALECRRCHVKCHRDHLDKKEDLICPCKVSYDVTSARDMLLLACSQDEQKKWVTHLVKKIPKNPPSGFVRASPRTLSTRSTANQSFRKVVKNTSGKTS
Description: as §1

Rho kinase 2, sequence (O75116 whole entry): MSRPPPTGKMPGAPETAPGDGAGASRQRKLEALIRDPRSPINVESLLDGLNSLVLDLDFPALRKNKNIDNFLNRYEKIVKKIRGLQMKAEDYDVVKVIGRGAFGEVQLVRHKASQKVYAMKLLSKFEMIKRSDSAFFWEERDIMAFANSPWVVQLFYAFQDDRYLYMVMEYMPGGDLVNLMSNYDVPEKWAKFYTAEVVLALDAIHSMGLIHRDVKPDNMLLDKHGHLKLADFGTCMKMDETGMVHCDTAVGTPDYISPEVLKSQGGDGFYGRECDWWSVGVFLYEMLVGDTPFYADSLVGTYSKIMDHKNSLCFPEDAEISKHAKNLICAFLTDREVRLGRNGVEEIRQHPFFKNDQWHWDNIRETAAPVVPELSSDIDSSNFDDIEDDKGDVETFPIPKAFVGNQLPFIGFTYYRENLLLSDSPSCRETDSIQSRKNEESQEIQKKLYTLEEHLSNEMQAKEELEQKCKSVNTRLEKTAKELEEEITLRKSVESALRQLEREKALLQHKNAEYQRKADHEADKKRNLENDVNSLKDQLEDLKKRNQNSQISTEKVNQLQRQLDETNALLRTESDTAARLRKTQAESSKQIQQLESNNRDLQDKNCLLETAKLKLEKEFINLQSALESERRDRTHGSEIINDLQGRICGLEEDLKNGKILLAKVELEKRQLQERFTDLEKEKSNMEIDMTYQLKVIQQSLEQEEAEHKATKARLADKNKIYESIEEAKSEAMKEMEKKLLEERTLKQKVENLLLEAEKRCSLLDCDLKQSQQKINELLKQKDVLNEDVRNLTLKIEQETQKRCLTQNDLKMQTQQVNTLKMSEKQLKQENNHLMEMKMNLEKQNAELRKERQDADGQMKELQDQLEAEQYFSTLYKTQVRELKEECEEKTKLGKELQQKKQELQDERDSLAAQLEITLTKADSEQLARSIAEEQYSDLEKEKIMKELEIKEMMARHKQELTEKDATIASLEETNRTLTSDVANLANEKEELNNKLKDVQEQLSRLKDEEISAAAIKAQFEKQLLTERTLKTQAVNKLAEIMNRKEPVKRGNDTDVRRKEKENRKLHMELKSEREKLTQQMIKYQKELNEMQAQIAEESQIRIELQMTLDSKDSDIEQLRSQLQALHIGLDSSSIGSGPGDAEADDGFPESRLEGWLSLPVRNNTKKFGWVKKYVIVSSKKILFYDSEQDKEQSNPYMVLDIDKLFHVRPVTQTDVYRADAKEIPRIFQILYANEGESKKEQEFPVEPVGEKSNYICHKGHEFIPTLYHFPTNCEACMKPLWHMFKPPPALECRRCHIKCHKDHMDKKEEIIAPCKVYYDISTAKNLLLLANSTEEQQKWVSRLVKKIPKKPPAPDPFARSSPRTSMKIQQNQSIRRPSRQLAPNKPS

Ki (Rho kinase 2)	Ki (Rho kinase 1)	SMILES
< 50 nM	< 50 nM	CC1=C(C(=O)Nc2ccc3cnccc3c2)C(c2ccc(C(F)(F)F)c(F)c2)n2nc(CN(C)C)cc2N1 (single isomer, unassigned) [Example 94B, 2-((dimethylamino)methyl)-7-(3-fluoro-4-(trifluoromethyl)phenyl)-N-(isoquinolin-6-yl)-5-methyl-4,7-dihydropyrazolo[1,5-a]pyrimidine-6-carboxamide]
50 to 500 nM	50 to 500 nM	CC1=C(C(=O)Nc2ccc3cnccc3c2)C(c2ccc(C(F)(F)F)c(F)c2)n2nc(CN3CCN(C)CC3)cc2N1 (single isomer, unassigned) [Example 96A, 7-(3-fluoro-4-(trifluoromethyl)phenyl)-N-(isoquinolin-6-yl)-5-methyl-2-((4-methylpiperazin-1-yl)methyl)-4,7-dihydropyrazolo[1,5-a]pyrimidine-6-carboxamide]
< 50 nM	< 50 nM	CC1=C(C(=O)Nc2ccc3cnccc3c2)C(c2ccc(C(F)(F)F)c(F)c2)n2nc(CN3CCN(C)CC3)cc2N1 (single isomer, unassigned) [Example 96B, 7-(3-fluoro-4-(trifluoromethyl)phenyl)-N-(isoquinolin-6-yl)-5-methyl-2-((4-methylpiperazin-1-yl)methyl)-4,7-dihydropyrazolo[1,5-a]pyrimidine-6-carboxamide]
50 to 500 nM	50 to 500 nM	CC1=C(C(=O)Nc2ccc3cnccc3c2)C(c2ccc(C(F)(F)F)c(F)c2)n2nc(CN3CCCCC3)cc2N1 (single isomer, unassigned) [Example 97A, 7-(3-fluoro-4-(trifluoromethyl)phenyl)-N-(isoquinolin-6-yl)-5-methyl-2-(piperidin-1-ylmethyl)-4,7-dihydropyrazolo[1,5-a]pyrimidine-6-carboxamide]
< 50 nM	< 50 nM	CC1=C(C(=O)Nc2ccc3cnccc3c2)C(c2ccc(C(F)(F)F)c(F)c2)n2nc(CN3CCCCC3)cc2N1 (single isomer, unassigned) [Example 97B, 7-(3-fluoro-4-(trifluoromethyl)phenyl)-N-(isoquinolin-6-yl)-5-methyl-2-(piperidin-1-ylmethyl)-4,7-dihydropyrazolo[1,5-a]pyrimidine-6-carboxamide]
< 50 nM	< 50 nM	CC1=C(C(=O)Nc2ccc3cnccc3c2)C(c2ccc(C(F)(F)F)c(F)c2)n2nc(CN(C)CC3CCN(C)CC3)cc2N1 (single isomer, unassigned) [Example 104A, 7-(3-fluoro-4-(trifluoromethyl)phenyl)-N-(isoquinolin-6-yl)-5-methyl-2-((methyl((1-methylpiperidin-4-yl)methyl)amino)methyl)-4,7-dihydropyrazolo[1,5-a]pyrimidine-6-carboxamide]
< 50 nM	50 to 500 nM	CC1=C(C(=O)Nc2ccc3cnccc3c2)C(c2ccc(C(F)(F)F)c(F)c2)n2nc(CN(C)CC3CCN(C)CC3)cc2N1 (single isomer, unassigned) [Example 104B, 7-(3-fluoro-4-(trifluoromethyl)phenyl)-N-(isoquinolin-6-yl)-5-methyl-2-((methyl((1-methylpiperidin-4-yl)methyl)amino)methyl)-4,7-dihydropyrazolo[1,5-a]pyrimidine-6-carboxamide]
50 to 500 nM	50 to 500 nM	CC1=C(C(=O)Nc2ccc3cnccc3c2)C(c2ccc(C)c(F)c2)n2nc(CN(C)C)cc2N1 (single isomer, unassigned) [Example 110A, 2-((dimethylamino)methyl)-7-(3-fluoro-4-methylphenyl)-N-(isoquinolin-6-yl)-5-methyl-4,7-dihydropyrazolo[1,5-a]pyrimidine-6-carboxamide]
< 50 nM	< 50 nM	CC1=C(C(=O)Nc2ccc3cnccc3c2)C(c2ccc(C)c(F)c2)n2nc(CN(C)C)cc2N1 (single isomer, unassigned) [Example 110B, 2-((dimethylamino)methyl)-7-(3-fluoro-4-methylphenyl)-N-(isoquinolin-6-yl)-5-methyl-4,7-dihydropyrazolo[1,5-a]pyrimidine-6-carboxamide]
< 50 nM	< 50 nM	CC1=C(C(=O)Nc2ccc3cnccc3c2)C(c2ccc(C)c(F)c2F)n2nc(CN(C)C)cc2N1 (single isomer, unassigned) [Example 121b, 7-(2,3-difluoro-4-methylphenyl)-2-((dimethylamino)methyl)-N-(isoquinolin-6-yl)-5-methyl-4,7-dihydropyrazolo[1,5-a]pyrimidine-6-carboxamide]
> 500 nM	> 500 nM	CC1=C(C(=O)Nc2ccc3cnccc3c2)C(c2ccc(C(F)(F)F)c(F)c2F)n2nc(CN(C)C)cc2N1 (single isomer, unassigned) [Example 122a, 7-(2,3-difluoro-4-(trifluoromethyl)phenyl)-2-((dimethylamino)methyl)-N-(isoquinolin-6-yl)-5-methyl-4,7-dihydropyrazolo[1,5-a]pyrimidine-6-carboxamide]
< 50 nM	< 50 nM	CC1=C(C(=O)Nc2ccc3cnccc3c2)C(c2ccc(C(F)(F)F)c(F)c2F)n2nc(CN(C)C)cc2N1 (single isomer, unassigned) [Example 122b, 7-(2,3-difluoro-4-(trifluoromethyl)phenyl)-2-((dimethylamino)methyl)-N-(isoquinolin-6-yl)-5-methyl-4,7-dihydropyrazolo[1,5-a]pyrimidine-6-carboxamide]
> 500 nM	> 500 nM	CC1=C(C(=O)Nc2ccc3cnccc3c2)C(C2Cc3ccccc3C2)n2nc(CN(C)C)cc2N1 (single isomer, unassigned) [Example 124a, 7-(2,3-dihydro-1H-inden-2-yl)-2-((dimethylamino)methyl)-N-(isoquinolin-6-yl)-5-methyl-4,7-dihydropyrazolo[1,5-a]pyrimidine-6-carboxamide]
< 50 nM	< 50 nM	CC1=C(C(=O)Nc2ccc3cnccc3c2)C(C2Cc3ccccc3C2)n2nc(CN(C)C)cc2N1 (single isomer, unassigned) [Example 124b, 7-(2,3-dihydro-1H-inden-2-yl)-2-((dimethylamino)methyl)-N-(isoquinolin-6-yl)-5-methyl-4,7-dihydropyrazolo[1,5-a]pyrimidine-6-carboxamide]
< 50 nM	< 50 nM	CC1=C(C(=O)Nc2ccc3cnccc3c2)C(c2ccc(C(F)(F)F)c(F)c2)n2nc(C(=O)NCCN3CCCCC3)nc2N1 (single isomer, unassigned) [Example 129a, 7-(3-fluoro-4-(trifluoromethyl)phenyl)-N6-(isoquinolin-6-yl)-5-methyl-N2-(2-(piperidin-1-yl)ethyl)-4,7-dihydro-[1,2,4]triazolo[1,5-a]pyrimidine-2,6-dicarboxamide]
> 500 nM	> 500 nM	CC1=C(C(=O)Nc2ccc3cnccc3c2)C(c2ccc(C(F)(F)F)c(F)c2)n2nc(NC(=O)c3ccc(CN(C)C)cc3)cc2N1 (single isomer, unassigned) [Example 137A, 2-(4-((Dimethylamino)methyl)benzamido)-7-(3-fluoro-4-(trifluoromethyl)-phenyl)-N-(isoquinolin-6-yl)-5-methyl-4,7-dihydropyrazolo[1,5-a]pyrimidine-6-carboxamide]
< 50 nM	< 50 nM	CC1=C(C(=O)Nc2ccc3cnccc3c2)C(c2ccc(C(F)(F)F)c(F)c2)n2nc(NC(=O)c3ccc(CN(C)C)cc3)cc2N1 (single isomer, unassigned) [Example 137B, 2-(4-((Dimethylamino)methyl)benzamido)-7-(3-fluoro-4-(trifluoromethyl)-phenyl)-N-(isoquinolin-6-yl)-5-methyl-4,7-dihydropyrazolo[1,5-a]pyrimidine-6-carboxamide]
< 50 nM	< 50 nM	CC1=C(C(=O)Nc2ccc3cnccc3c2)C(c2ccc(C(F)(F)F)c(F)c2)n2nc(CNC(=O)CCN3CCCCC3)cc2N1 (single isomer, unassigned) [Example 138A, 7-(3-Fluoro-4-(trifluoromethyl)phenyl)-N-(isoquinolin-6-yl)-5-methyl-2-((3-(piperidin-1-yl)propanamido)methyl)-4,7-dihydropyrazolo[1,5-a]pyrimidine-6-carboxamide]
> 500 nM	> 500 nM	CC1=C(C(=O)Nc2ccc3cnccc3c2)C(c2ccc(C(F)(F)F)c(F)c2)n2nc(CNC(=O)CCN3CCCCC3)cc2N1 (single isomer, unassigned) [Example 138B, 7-(3-Fluoro-4-(trifluoromethyl)phenyl)-N-(isoquinolin-6-yl)-5-methyl-2-((3-(piperidin-1-yl)propanamido)methyl)-4,7-dihydropyrazolo[1,5-a]pyrimidine-6-carboxamide]
< 50 nM	< 50 nM	CCOC(=O)c1cc2n(n1)C(c1ccc(C(F)(F)F)cc1)C(C(=O)Nc1ccc3cnccc3c1)=C(C)N2 (stereo not shown) [Example 1, ethyl 6-(isoquinolin-6-ylcarbamoyl)-5-methyl-7-(4-(trifluoromethyl)phenyl)-4,7-dihydropyrazolo[1,5-a]pyrimidine-2-carboxylate]
